The text below walks through data of ChEMBL document CHEMBL4130414, “Asymmetric synthesis of novel triazole derivatives and their in vitro antiviral activity and mechanism of action” (Eur J Med Chem, 2017).

The structures appear in SMILES notation. Values after ≈ are worked out from the molar mass of the structure shown. Active and inactive are the calls of the source. No cut-off for these calls is given here.

Broadly, the inhibition is the relative decrease from the control value, in per cent. As usually defined, the CC50 is the concentration that lowers cell viability or growth by half. For orientation: EC50 means the concentration at which the effect is half-maximal.

The subject of data set [1] is Coxsackievirus B3. Nature of the data set: Antiviral activity against Coxsackievirus B3 (strain Nancy) infected in human HEP2 cells assessed as inhibition of virus-induced cytopathic effect at 16 ug/ml after 48 hrs by MTT dye based assay. It counts as functional, organism-based. (Protection from cytopathic effect is a common read-out in antiviral testing.)
Data set [2] can be described thus: Cytotoxicity against human Hep2 cells assessed as reduction in cell viability after 3 days by MTT assay. It counts as cell-based. The following applies: HEp-2 cells. In general terms: Tetrazolium dyes change colour on reduction, which living cells bring about.
Data set [3] is described as follows: Selectivity index, ratio of CC50 for human HEP2 cells to EC50 for Coxsackievirus B3 (strain Nancy) infected in human HEP cells. Type of data set: toxicity, cell-based. The following applies: HEp-2 cells, read-out: Ratio CC50/EC50.
Data set [4] in a line: Selectivity index, ratio of CC50 for human RD cells to EC50 for EV71 Xiangyang-Hubei-09 infected in human RD cells. Type of data set: toxicity, cell-based. The following applies: read-out: Ratio CC50/EC50.
Data set [5] in a line: Cytotoxicity against human RD cells assessed as reduction in cell viability after 3 days by MTT assay. It counts as cell-based.
Data set [6] deals with Coxsackievirus B3. The data set can be described thus: Antiviral activity against Coxsackievirus B3 (strain Nancy) infected in human HEP2 cells assessed as inhibition of virus-induced cytopathic effect by MTT dye based assay. It counts as functional, organism-based. The note with it: for EC50: Enterovirus B, Nancy, HEp-2, read-out: EC50.
The subject of data set [7] is Enterovirus A71. Nature of the data set: Antiviral activity against EV71 Xiangyang-Hubei-09 infected in human RD cells assessed as alteration in viral cell morphology at 16 ug/ml after 48 hrs. It counts as functional, organism-based.
Data set [8] concerns Enterovirus A71. The data set can be described thus: Antiviral activity against EV71 Xiangyang-Hubei-09 infected in human RD cells assessed as inhibition of virus-induced cytopathic effect by MTT dye based assay. It counts as functional, organism-based. The following applies: for EC50: Enterovirus A, Xiangyang-Hubei-09, RD, read-out: EC50.
Data set [9] deals with Enterovirus A71. Nature of the data set: Antiviral activity against EV71 Xiangyang-Hubei-09 infected in human RD cells assessed as inhibition of virus-induced cytopathic effect at 16 ug/ml treated 1 hr post viral infection measured after 48 hrs by MTT dye based assay relative to control. Type of data set: functional. The following applies: for inhibition at 16 µg/mL: Enterovirus A, Xiangyang-Hubei-09, RD.

Data set [10] has as its system Enterovirus A71. The data set can be described thus: Antiviral activity against EV71 Xiangyang-Hubei-09 infected in human RD cells assessed as reduction in progeny viral yield at 16 ug/ml treated 1 hr post viral infection measured after 48 hrs. Type of data set: functional.
In data set [11] the test system is Enterovirus A71. Nature of the data set: Antiviral activity against EV71 Xiangyang-Hubei-09 infected in human RD cells assessed as inhibition of virus-induced cytopathic effect at 16 ug/ml preincubated with RD cells for 2 hrs followed by washing with PBS and subsequent viral infection measured after 48 hrs by MTT assay. Type of data set: functional, organism-based.

Data set [12] relates to Enterovirus A71. The data set can be described thus: Antiviral activity against EV71 Xiangyang-Hubei-09 infected in human RD cells assessed as inhibition of viral adsorption at 16 ug/ml treated simultaneously with viral infection for 2 hrs followed by washing with PBS measured after 48 hrs. It counts as functional, organism-based.
Data set [13] concerns Enterovirus A71. The data set can be described thus: Antiviral activity against EV71 Xiangyang-Hubei-09 infected in human RD cells at 16 ug/ml preincubated with RD cells for 2 hrs followed by washing with PBS and subsequent viral infection measured after 48 hrs. Type of data set: functional, organism-based.

Turning to `C[C@@H](CCn1cncn1)Cc1ccccc1`, the inhibition result in the data set with Coxsackievirus B3 [1], in the data set on Enterovirus A71 [7] and with Enterovirus A71 [9] was “Active” throughout. Besides, the CC50 at 72 h came to 131 µg/mL (≈ 609 µM) in data set [2] and 114 µg/mL (≈ 530 µM) in data set [5]. Also, the selectivity ratio was found to be 12.7 in [3] and 12.6 in data set [4]. Besides, the inhibition result with Coxsackievirus B3 [6] and in the data set with Enterovirus A71 [8] was “Dose-dependent effect” throughout. The EC50 in the data set on Coxsackievirus B3 [6] is 10.3 µg/mL (≈ 47.8 µM); with Enterovirus A71 [8] it was 9.1 µg/mL (≈ 42.3 µM).
For the compound `NC(=O)c1ncn([C@@H]2O[C@H](CO)[C@@H](O)[C@H]2O)n1` [RIBAVIRIN], the inhibition entry in the data set on Coxsackievirus B3 [1] and in the data set on Enterovirus A71 [9] was “Active” in each case. Besides, the CC50 at 72 h in data set [2] stood at 572 µg/mL (≈ 2340 µM); in [5], 486 µg/mL (≈ 1990 µM). For the same compound, the selectivity ratio in [3] was 13.3; in data set [4] it was 15. Besides, the figures for the EC50 with Coxsackievirus B3 [6] and with Enterovirus A71 [8] were 42.9 µg/mL (≈ 176 µM) and 32.5 µg/mL (≈ 133 µM), respectively.
Turning to `CC[C@@H](CCn1cncn1)c1ccc(C)cc1`, the “log(activity)” value with Enterovirus A71 [10] was found to be 4.7. In addition, the inhibition result with Coxsackievirus B3 [1], with Enterovirus A71 [12] and with Enterovirus A71 [7] was “Active” each time. In addition, the results for the CC50 at 72 h in data set [2] and in [5] were 69.9 µg/mL (≈ 305 µM) and 79.4 µg/mL (≈ 346 µM), respectively. Moreover, the selectivity ratio in data set [3] was determined as 11.7; in [4], 14.7. For the same compound, the inhibition result in the data set on Enterovirus A71 [11] and in the data set on Enterovirus A71 [13] was “inactive” throughout. Moreover, the inhibition entry in the data set on Coxsackievirus B3 [6] and in the data set with Enterovirus A71 [8] was “Dose-dependent effect” in each case. For the same compound, the EC50 was determined as 6 µg/mL (≈ 26.2 µM) with Coxsackievirus B3 [6] and 5.4 µg/mL (≈ 23.5 µM) in the data set on Enterovirus A71 [8]. For the same compound, the inhibition at 16 µg/mL in the data set on Enterovirus A71 [9] worked out at 81%.
As to `CC[C@@H](CCn1cncn1)c1ccc(OC)cc1`, the inhibition result with Coxsackievirus B3 [1] and in the data set with Enterovirus A71 [7] was “Active” throughout. The values for the CC50 at 72 h in data set [2] and in data set [5] were 146 µg/mL (≈ 596 µM) and 115 µg/mL (≈ 469 µM), respectively. Also, the results for the selectivity ratio in [3] and in data set [4] were 14.5 and 21.7, respectively. Moreover, the inhibition entry with Coxsackievirus B3 [6] and with Enterovirus A71 [8] was “Dose-dependent effect” throughout. The EC50 in the data set with Coxsackievirus B3 [6] was 10.1 µg/mL (≈ 41.2 µM); in the data set with Enterovirus A71 [8], 5.3 µg/mL (≈ 21.6 µM). Moreover, the inhibition at 16 µg/mL in the data set on Enterovirus A71 [9] came out at 88.1%.
Consider `C[C@H](CCn1cncn1)Cc1ccccc1`, for which the “log(activity)” value in the data set on Enterovirus A71 [10] worked out at 4.7. Also, the inhibition entry in the data set with Coxsackievirus B3 [1], with Enterovirus A71 [12] and in the data set on Enterovirus A71 [7] was “Active” each time. Besides, the CC50 at 72 h stood at 144 µg/mL (≈ 670 µM) in data set [2] and 153 µg/mL (≈ 710 µM) in data set [5]. In addition, the selectivity ratio was determined as 12.6 in data set [3] and 24.7 in data set [4]. Also, the inhibition result in the data set on Enterovirus A71 [11] and in the data set on Enterovirus A71 [13] was “inactive” each time. Further, the inhibition result with Coxsackievirus B3 [6] and with Enterovirus A71 [8] was “Dose-dependent effect” throughout. For the same compound, the EC50 stood at 11.4 µg/mL (≈ 52.9 µM) in the data set on Coxsackievirus B3 [6] and 6.2 µg/mL (≈ 28.8 µM) in the data set with Enterovirus A71 [8]. The inhibition at 16 µg/mL in the data set on Enterovirus A71 [9] stood at 72%.
Take `CC[C@H](CCn1cncn1)c1ccc(C)cc1`: the values for the CC50 at 72 h in [2] and in data set [5] were 75.2 µg/mL (≈ 328 µM) and 85.2 µg/mL (≈ 372 µM), respectively. Also, the selectivity ratio turned out to be 6.2 in data set [3] and 12.9 in [4]. The results for the EC50 in the data set on Coxsackievirus B3 [6] and with Enterovirus A71 [8] were 12.1 µg/mL (≈ 52.8 µM) and 6.6 µg/mL (≈ 28.8 µM), respectively.
On to `CCCC[C@H](CCn1cncn1)c1ccccc1`, for which the CC50 at 72 h in data set [2] was 50.2 µg/mL (≈ 206 µM); in [5], 48.3 µg/mL (≈ 198 µM). For the same compound, the figures for the selectivity ratio in [3] and in data set [4] were 4.8 and 4, respectively. In addition, the EC50 in the data set on Coxsackievirus B3 [6] came out at 10.4 µg/mL (≈ 42.7 µM); with Enterovirus A71 [8] it was 12.1 µg/mL (≈ 49.7 µM).
